Like-named read-outs stand apart in the source and are kept apart here.
Experiments:
MKK6(h) = molecular target: T1, MKK6(h) (Homo sapiens, UniProt P52564); assay: Kinase panel; format: biochemical
T1 construct: purchased Millipore KinaseProfiler
T1 sequence (P52564 1-334): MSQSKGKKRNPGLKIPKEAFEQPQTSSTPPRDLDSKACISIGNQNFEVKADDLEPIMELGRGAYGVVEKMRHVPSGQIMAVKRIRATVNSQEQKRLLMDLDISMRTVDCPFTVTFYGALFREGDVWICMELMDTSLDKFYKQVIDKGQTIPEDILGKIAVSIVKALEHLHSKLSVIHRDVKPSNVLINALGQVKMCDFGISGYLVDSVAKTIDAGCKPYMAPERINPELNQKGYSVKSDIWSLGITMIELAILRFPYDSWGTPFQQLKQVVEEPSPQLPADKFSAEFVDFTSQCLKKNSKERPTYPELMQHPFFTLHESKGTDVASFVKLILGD

RSK1 = RSK1 (Homo sapiens, UniProt Q15418); assay: Kinase IC50 assay; format: biochemical
PRK2(h) = molecular target: T2, PRK2(h) (Homo sapiens, UniProt Q16513); assay: Kinase panel; format: biochemical
T2 construct: purchased Millipore KinaseProfiler

Abl(Y253F)(h) = molecular target: T3, Abl(Y253F)(h) (Homo sapiens, UniProt P00519, Y253F); assay: Kinase panel; format: biochemical
T3 construct: purchased Millipore KinaseProfiler

Plk1(h) = molecular target: T4, Plk1(h) (Homo sapiens, UniProt P53350); assay: Kinase panel; format: biochemical
T4 construct: purchased Millipore KinaseProfiler

[1] = tested on: phospho-PRAS40 in BT474 tumor xenografts; assay: In vivo dose response pharmacodynamic assay (phospho-PRAS40 ELISA); set-up: species or system mouse; details: 2 h post last dose
Method: Protein lysates were analyzed by phospho-PRAS40 ELISA according to the methods described above. Concentration of the test compounds in the tissue and blood was analyzed using protein precipitation with acetonitrile, followed by HPLC/MS/MS analysis using positive ion atmospheric pressure chemical ionization or Turbo ionspray ionization (API 4000 or API 5000, Applied Biosystems). The lower level of detection of compound was 10 ng/mL and the assays were linear over a 100- to a 1000-fold drug concentration range.

Abl(m) = molecular target: T5, Abl(m) (Mus musculus, UniProt P00520); assay: Kinase panel; format: biochemical
T5 construct: purchased Millipore KinaseProfiler

BrSK2(h) = molecular target: T6, BrSK2(h) (Homo sapiens, UniProt Q8IWQ3); assay: Kinase panel; format: biochemical
T6 construct: purchased Millipore KinaseProfiler
T6 sequence (Q8IWQ3 1-736): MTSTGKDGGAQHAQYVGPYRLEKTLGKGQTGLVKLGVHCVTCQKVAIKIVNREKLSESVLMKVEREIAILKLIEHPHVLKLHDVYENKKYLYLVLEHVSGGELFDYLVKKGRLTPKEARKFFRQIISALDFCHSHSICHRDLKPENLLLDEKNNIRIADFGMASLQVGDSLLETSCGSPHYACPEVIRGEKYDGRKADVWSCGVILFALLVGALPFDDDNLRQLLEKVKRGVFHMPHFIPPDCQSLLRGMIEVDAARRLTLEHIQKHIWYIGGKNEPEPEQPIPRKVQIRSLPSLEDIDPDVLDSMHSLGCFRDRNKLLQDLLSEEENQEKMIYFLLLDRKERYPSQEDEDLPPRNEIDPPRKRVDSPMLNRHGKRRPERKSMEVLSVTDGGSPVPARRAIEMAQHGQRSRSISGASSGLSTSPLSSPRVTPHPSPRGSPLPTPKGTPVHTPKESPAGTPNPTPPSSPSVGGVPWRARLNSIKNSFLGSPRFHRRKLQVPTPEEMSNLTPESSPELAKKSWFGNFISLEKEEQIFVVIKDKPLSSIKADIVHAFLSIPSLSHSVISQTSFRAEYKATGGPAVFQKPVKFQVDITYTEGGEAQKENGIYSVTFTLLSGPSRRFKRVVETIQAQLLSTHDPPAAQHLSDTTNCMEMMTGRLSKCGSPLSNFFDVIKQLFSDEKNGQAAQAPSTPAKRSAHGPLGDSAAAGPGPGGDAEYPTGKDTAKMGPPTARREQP

TSSK1(h) = molecular target: T7, TSSK1(h) (Homo sapiens, UniProt Q9BXA7); assay: Kinase panel; format: biochemical
T7 construct: purchased Millipore KinaseProfiler
T7 sequence (Q9BXA7 1-367): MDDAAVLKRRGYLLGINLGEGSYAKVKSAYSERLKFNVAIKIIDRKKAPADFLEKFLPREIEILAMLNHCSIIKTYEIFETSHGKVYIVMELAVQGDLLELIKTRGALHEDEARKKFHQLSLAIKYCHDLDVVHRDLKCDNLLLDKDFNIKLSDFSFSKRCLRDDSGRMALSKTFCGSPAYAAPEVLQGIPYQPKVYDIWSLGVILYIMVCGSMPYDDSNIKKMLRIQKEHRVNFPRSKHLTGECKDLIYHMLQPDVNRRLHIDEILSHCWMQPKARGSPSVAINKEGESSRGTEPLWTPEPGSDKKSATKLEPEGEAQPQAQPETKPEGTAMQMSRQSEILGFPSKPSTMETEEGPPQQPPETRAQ

Fgr(h) = molecular target: T8, Fgr(h) (Homo sapiens, UniProt P09769); assay: Kinase panel; format: biochemical
T8 construct: purchased Millipore KinaseProfiler

Rsk1(h) = molecular target: T9, Rsk1(h) (Homo sapiens, UniProt Q15418); assay: Kinase panel; format: biochemical
T9 construct: purchased Millipore KinaseProfiler

Fer(h) = molecular target: T10, Fer(h) (Homo sapiens, UniProt P16591); assay: Kinase panel; format: biochemical
T10 construct: purchased Millipore KinaseProfiler

Tie2(R849W)(h) = molecular target: T11, Tie2(R849W)(h) (Homo sapiens, UniProt Q02763, R849W); assay: Kinase panel; format: biochemical
T11 construct: purchased Millipore KinaseProfiler

PrKX(h) = molecular target: T12, PrKX(h) (Homo sapiens, UniProt P51817); assay: Kinase panel; format: biochemical
T12 construct: purchased Millipore KinaseProfiler
T12 sequence (P51817 1-358): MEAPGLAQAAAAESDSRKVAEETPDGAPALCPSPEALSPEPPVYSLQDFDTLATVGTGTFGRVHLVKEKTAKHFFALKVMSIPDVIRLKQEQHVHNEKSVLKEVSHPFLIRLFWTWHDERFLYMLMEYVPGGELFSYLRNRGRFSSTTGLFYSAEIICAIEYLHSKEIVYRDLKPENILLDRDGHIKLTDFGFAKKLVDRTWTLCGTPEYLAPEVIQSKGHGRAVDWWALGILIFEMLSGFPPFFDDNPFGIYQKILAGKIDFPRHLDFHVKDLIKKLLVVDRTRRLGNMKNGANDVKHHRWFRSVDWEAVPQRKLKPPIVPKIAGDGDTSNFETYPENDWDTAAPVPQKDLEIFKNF

T2 sequence (Q16513 whole entry): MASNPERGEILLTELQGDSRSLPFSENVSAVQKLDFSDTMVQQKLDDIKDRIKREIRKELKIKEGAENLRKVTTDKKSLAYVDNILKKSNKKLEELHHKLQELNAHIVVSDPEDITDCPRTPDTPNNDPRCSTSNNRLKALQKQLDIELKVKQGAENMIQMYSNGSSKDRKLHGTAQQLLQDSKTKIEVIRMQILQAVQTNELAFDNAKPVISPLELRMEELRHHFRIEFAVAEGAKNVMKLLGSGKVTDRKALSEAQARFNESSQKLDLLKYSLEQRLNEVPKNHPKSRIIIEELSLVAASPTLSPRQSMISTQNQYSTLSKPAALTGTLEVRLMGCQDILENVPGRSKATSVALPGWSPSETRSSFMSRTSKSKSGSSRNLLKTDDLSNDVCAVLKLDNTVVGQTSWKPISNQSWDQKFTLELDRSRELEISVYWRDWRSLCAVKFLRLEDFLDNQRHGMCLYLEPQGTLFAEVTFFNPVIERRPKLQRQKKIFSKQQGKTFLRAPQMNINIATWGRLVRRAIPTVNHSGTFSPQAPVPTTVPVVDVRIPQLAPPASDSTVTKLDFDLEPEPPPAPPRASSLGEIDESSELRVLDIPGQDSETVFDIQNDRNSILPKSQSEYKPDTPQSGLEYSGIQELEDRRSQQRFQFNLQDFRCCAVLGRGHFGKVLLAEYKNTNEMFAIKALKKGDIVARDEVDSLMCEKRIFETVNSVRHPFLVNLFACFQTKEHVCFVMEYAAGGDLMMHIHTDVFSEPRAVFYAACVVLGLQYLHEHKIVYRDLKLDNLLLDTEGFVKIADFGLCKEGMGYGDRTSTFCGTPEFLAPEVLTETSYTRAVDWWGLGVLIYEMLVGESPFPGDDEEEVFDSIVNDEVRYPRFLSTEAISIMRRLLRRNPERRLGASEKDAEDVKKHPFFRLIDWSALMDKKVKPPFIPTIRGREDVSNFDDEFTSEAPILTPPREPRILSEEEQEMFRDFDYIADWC
T8 sequence (P09769 whole entry): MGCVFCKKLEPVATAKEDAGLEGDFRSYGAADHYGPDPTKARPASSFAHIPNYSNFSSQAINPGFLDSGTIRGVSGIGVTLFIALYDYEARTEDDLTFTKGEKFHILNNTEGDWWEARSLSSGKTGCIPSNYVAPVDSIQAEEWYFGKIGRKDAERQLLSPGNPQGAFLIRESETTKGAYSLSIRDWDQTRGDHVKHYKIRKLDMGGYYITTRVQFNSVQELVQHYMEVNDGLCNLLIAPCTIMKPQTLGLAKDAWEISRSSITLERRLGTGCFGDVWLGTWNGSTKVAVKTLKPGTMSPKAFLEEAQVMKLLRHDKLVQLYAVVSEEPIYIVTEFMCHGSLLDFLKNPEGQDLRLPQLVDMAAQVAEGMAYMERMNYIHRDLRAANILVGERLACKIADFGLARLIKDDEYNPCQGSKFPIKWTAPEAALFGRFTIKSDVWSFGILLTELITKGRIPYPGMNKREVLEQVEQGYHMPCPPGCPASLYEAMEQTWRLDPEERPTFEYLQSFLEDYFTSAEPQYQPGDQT
T10 sequence (P16591 whole entry): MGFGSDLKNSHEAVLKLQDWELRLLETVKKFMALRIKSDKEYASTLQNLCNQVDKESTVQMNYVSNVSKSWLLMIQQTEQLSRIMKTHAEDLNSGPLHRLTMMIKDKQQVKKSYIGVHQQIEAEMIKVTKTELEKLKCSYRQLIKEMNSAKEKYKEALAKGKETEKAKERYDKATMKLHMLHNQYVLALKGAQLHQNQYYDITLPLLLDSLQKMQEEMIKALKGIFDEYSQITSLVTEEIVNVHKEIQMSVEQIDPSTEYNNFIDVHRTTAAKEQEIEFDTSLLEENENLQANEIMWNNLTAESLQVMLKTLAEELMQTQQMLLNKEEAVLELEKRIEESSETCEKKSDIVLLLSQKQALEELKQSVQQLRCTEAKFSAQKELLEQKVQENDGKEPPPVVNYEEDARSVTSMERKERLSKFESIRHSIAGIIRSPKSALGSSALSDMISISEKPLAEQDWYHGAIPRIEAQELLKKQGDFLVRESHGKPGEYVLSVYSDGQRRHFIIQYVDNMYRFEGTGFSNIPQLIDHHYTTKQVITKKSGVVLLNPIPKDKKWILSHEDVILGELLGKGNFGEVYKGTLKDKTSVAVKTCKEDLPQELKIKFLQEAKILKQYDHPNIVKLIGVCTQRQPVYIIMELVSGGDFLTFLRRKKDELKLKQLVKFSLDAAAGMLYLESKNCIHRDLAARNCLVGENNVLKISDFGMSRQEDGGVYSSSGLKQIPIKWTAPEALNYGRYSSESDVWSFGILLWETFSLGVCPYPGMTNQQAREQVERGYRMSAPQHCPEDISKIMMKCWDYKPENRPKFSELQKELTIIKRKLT
T5 sequence (P00520 27-1123 limits assumed): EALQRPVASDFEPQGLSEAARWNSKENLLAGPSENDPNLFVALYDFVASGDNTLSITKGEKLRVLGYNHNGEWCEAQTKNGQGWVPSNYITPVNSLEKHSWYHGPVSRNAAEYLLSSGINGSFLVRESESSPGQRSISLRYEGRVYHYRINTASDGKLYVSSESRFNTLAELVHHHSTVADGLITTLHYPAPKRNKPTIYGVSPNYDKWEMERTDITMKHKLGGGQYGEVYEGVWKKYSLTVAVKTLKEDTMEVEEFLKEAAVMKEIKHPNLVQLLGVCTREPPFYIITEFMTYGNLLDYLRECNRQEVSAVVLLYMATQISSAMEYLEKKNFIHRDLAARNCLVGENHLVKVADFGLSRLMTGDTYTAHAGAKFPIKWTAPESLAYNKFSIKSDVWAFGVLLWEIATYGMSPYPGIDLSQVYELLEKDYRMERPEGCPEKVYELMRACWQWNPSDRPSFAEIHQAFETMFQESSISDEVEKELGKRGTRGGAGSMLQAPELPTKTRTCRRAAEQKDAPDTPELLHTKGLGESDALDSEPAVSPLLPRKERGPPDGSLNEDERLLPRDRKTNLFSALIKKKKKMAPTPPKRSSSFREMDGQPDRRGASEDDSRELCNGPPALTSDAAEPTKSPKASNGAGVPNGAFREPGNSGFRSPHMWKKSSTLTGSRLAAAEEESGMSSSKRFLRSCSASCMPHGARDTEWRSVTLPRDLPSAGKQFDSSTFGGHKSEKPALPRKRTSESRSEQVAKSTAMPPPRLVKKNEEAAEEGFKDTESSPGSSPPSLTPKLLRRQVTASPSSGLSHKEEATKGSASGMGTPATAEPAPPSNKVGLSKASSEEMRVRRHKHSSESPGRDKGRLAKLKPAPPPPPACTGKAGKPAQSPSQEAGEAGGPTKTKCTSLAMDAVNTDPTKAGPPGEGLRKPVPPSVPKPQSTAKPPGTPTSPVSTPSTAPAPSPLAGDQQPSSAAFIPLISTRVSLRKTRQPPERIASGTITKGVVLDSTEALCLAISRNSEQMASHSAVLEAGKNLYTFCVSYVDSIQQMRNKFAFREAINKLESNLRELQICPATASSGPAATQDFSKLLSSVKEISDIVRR
T11 sequence (Q02763 23-1124 R849W): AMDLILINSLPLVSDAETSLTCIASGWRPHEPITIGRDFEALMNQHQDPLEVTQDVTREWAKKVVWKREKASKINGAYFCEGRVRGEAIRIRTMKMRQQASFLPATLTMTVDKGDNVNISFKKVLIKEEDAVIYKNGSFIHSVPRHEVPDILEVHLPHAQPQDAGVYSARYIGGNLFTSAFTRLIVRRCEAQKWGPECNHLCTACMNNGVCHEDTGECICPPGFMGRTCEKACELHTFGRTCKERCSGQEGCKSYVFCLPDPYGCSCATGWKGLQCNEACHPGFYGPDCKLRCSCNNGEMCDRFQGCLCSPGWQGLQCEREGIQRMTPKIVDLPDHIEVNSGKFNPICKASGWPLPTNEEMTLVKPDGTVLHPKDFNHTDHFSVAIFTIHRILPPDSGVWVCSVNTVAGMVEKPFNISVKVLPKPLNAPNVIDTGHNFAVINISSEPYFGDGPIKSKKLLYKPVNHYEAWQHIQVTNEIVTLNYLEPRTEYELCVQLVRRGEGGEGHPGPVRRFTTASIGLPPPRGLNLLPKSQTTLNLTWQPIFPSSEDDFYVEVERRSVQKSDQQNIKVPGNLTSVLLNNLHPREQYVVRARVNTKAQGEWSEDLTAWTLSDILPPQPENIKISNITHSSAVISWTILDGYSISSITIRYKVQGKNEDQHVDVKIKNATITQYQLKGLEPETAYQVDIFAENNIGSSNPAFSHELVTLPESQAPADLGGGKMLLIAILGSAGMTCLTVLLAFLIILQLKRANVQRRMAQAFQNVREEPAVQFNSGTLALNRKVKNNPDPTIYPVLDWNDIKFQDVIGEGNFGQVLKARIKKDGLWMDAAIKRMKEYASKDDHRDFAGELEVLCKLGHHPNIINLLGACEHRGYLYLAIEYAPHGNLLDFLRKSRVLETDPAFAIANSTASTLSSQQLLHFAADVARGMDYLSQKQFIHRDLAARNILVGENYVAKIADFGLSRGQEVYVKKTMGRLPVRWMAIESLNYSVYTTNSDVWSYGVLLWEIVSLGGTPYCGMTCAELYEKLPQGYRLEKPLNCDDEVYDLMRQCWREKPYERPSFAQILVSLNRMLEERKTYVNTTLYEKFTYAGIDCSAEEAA

Cn1ncc(Cl)c1-c1cc(C(=O)N[C@H](CN)Cc2cccc(F)c2)sc1Cl [GSK2110183]
inhibition at 0.5 µM (MKK6(h)): 6%
inhibition at 10 µM (MKK6(h)): 36%
IC50 (RSK1): 316 nM
inhibition at 0.5 µM (PRK2(h)): 71%
inhibition at 10 µM (PRK2(h)): 99%
inhibition at 0.5 µM (Abl(Y253F)(h)): 2%
inhibition at 10 µM (Abl(Y253F)(h)): 9%
inhibition at 0.5 µM (Plk1(h)): -21%
inhibition at 10 µM (Plk1(h)): -6%
decrease of PRAS40 phosphorylation in tumors ([1]; 10 mg/kg QDx7 oral): 8%
decrease of PRAS40 phosphorylation in tumors ([1]; 30 mg/kg QDx7 oral): 37%
decrease of PRAS40 phosphorylation in tumors ([1]; 100 mg/kg QDx7 oral): 61%
inhibition at 0.5 µM (Abl(m)): 8%
inhibition at 10 µM (Abl(m)): -5%
inhibition at 0.5 µM (BrSK2(h)): -2%
inhibition at 10 µM (BrSK2(h)): 17%
inhibition at 0.5 µM (TSSK1(h)): 16%
inhibition at 10 µM (TSSK1(h)): 84%
inhibition at 0.5 µM (Fgr(h)): 3%
inhibition at 10 µM (Fgr(h)): 45%
inhibition at 0.5 µM (Rsk1(h)): 49%
inhibition at 10 µM (Rsk1(h)): 89%
inhibition at 0.5 µM (Fer(h)): -8%
inhibition at 10 µM (Fer(h)): 16%
inhibition at 0.5 µM (Tie2(R849W)(h)): -8%
inhibition at 10 µM (Tie2(R849W)(h)): -9%
inhibition at 0.5 µM (PrKX(h)): 70%
inhibition at 10 µM (PrKX(h)): 96%

Cn1ncc(Cl)c1-c1cc(C(=O)N[C@H](CN)Cc2ccc(F)c(F)c2)oc1Cl [GSK2141795]
inhibition at 0.5 µM (MKK6(h); 0.5 µM, read-out: % Inhibition): 14%
inhibition at 10 µM (MKK6(h); 10 µM, read-out: % Inhibition): 66%
IC50 (RSK1): 200 nM
inhibition at 0.5 µM (PRK2(h); 0.5 µM, read-out: % Inhibition): 81%
inhibition at 10 µM (PRK2(h); 10 µM, read-out: % Inhibition): 96%
inhibition at 0.5 µM (Abl(Y253F)(h); 0.5 µM, read-out: % Inhibition): -18%
inhibition at 10 µM (Abl(Y253F)(h); 10 µM, read-out: % Inhibition): -11%
inhibition at 0.5 µM (Plk1(h); 0.5 µM, read-out: % Inhibition): -34%
inhibition at 10 µM (Plk1(h); 10 µM, read-out: % Inhibition): 8%
decrease of PRAS40 phosphorylation in tumors ([1]; 30 mg/kg QDx7 oral): 62%
inhibition at 0.5 µM (Abl(m); 0.5 µM, read-out: % Inhibition): 1%
inhibition at 10 µM (Abl(m); 10 µM, read-out: % Inhibition): 7%
inhibition at 0.5 µM (BrSK2(h); 0.5 µM, read-out: % Inhibition): 2%
inhibition at 10 µM (BrSK2(h); 10 µM, read-out: % Inhibition): 27%
inhibition at 0.5 µM (TSSK1(h); 0.5 µM, read-out: % Inhibition): 21%
inhibition at 10 µM (TSSK1(h); 10 µM, read-out: % Inhibition): 83%
inhibition at 0.5 µM (Fgr(h); 0.5 µM, read-out: % Inhibition): 2%
inhibition at 10 µM (Fgr(h); 10 µM, read-out: % Inhibition): 68%
inhibition at 0.5 µM (Rsk1(h); 0.5 µM, read-out: % Inhibition): 44%
inhibition at 10 µM (Rsk1(h); 10 µM, read-out: % Inhibition): 91%
inhibition at 0.5 µM (Fer(h); 0.5 µM, read-out: % Inhibition): 1%
inhibition at 10 µM (Fer(h); 10 µM, read-out: % Inhibition): -4%
inhibition at 0.5 µM (Tie2(R849W)(h); 0.5 µM, read-out: % Inhibition): -8%
inhibition at 10 µM (Tie2(R849W)(h); 10 µM, read-out: % Inhibition): 11%
inhibition at 0.5 µM (PrKX(h); 0.5 µM, read-out: % Inhibition): 91%
inhibition at 10 µM (PrKX(h); 10 µM, read-out: % Inhibition): 98%

Source: paper PMC4076210, “Discovery of Novel AKT Inhibitors with Enhanced Anti-Tumor Effects in Combination with the MEK Inhibitor” (PLoS ONE, 2014)
